Results on 31 compounds are retold here after publication PMC3894558, “Chemical signatures and new drug targets for gametocytocidal drug development” (Scientific Reports, 2014).

Where a name gives a salt, the structure may show the parent alone. Read-outs that look alike come from different tables or passages of the source.

For assay [1], the system named is P. falciparum 3D7 gametocytes. As to the kind of experiment: alamarBlue gametocyte viability assay, strain 3D7. It counts as cell-based, Plasmodium falciparum. To be noted: for Max Resp: DMSO set at 0%, 100 nM epoxomicin set at -100%.
Assay [2] deals with P. falciparum Dd2 gametocytes. As to the kind of experiment: alamarBlue gametocyte viability assay, strain Dd2. It counts as cell-based, Plasmodium falciparum.
Protocol: Briefly, gametocyte cultures were set up at 0.1% parasitemia and on days 9–10 treated with 50 mM N-acetylglucosamine (NAG) to block further asexual growth. Stage III–V gametocytes were isolated by Percoll density gradient centrifugation on day 12 and returned to culture for 24 hrs before being used in the assay[9].
Briefly, 2.5 μl/well incomplete medium was dispensed into each well of 1,536-well plates using the Multidrop Combi followed by 23 nl compound transferring using the NX-TR Pintool (WAKO Scientific Solutions, San Diego, CA). Then, 2.5 μl/well of gametocytes was dispensed with a seeding density of 20,000 cells/well using the Multidrop Combi. The assay plates were incubated for 72 hrs at 37°C with 5% CO2.
The test system of assay [3] is P. falciparum HB3 gametocytes. Kind of assay: alamarBlue gametocyte viability assay, strain HB3. It counts as cell-based, Plasmodium falciparum. For orientation: The colour change of resazurin is a common sign of viable cells or microbes.
Assay [4] deals with HepG2 cells. As to the kind of experiment: cells. The note with it: Homo sapiens; for Emax: HepG2, read-out: % Max response; for IC50: HepG2, read-out: IC50 in HepG2 cells.
Description: Growth medium was made with Dulbecco's Modified Eagle Medium with 10% fetal bovine serum (FBS).
The mark [5] stands for this setting: Plasmodium falciparum, DD2, strain profiling, 11 concentrations, 1:3 dilution, three times, read-out: Dd2-gametocytes IC50.
[6] abbreviates: Plasmodium falciparum, HB3, strain profiling, 11 concentrations, 1:3 dilution, three times, read-out: HB3-gametocytes IC50.
Setting [7] is: Plasmodium falciparum, 3D7, strain profiling, 11 concentrations, 1:3 dilution, three times, read-out: 3D7-gametocytes IC50.
Where [8] appears, read: Plasmodium falciparum, DD2, read-out: Dd2-gametocytes IC50.
[9] abbreviates: Plasmodium falciparum, HB3, read-out: HB3-gametocytes IC50.
Setting [10] is: strain profiling, 11 concentrations, 1:3 dilution, three times, read-out: 3D7-gametocytes IC50.
Setting [11] is: strain profiling, 11 concentrations, 1:3 dilution, three times, read-out: Dd2-gametocytes IC50.
The mark [12] stands for this setting: strain profiling, 11 concentrations, 1:3 dilution, three times, read-out: HB3-gametocytes IC50.
[13] abbreviates: Malaria Box, stages III-V 3D7 gametocytes.
The mark [14] stands for this setting: Malaria Box, stages III-V 3D7 gametocytes, 11 concentrations, 1:3 dilution, read-out: IC50.
Setting [15] is: Malaria Box, stages III-V 3D7 gametocytes, 11 concentrations, 1:3 dilution.
Where [16] appears, read: Plasmodium falciparum, 3D7, P. falciparum 3D7 gametocytes, mean of at least 3 independent experiments, read-out: Gametocyte IC50.

With `c1cnc2c(c1)ccc1cccnc12` [1,10-Phenanthroline], the half-maximal inhibitory concentration (IC50) in assay [1] (Plasmodium falciparum, 3D7, read-out: 3D7-gametocytes IC50, strain profiling, 11 concentrations, 1:3 dilution, three times) is 743 nM; in assay [2] (setting [5]) it was 1320 nM; in assay [3] (setting [6]) it was 1180 nM.
Take `CNc1ccc2oc(C[C@H]3O[C@@]4(CC[C@H]3C)O[C@H]([C@H](C)C(=O)c3ccc[nH]3)[C@H](C)C[C@H]4C)nc2c1C(=O)O` [Calcimycin]: the IC50 in assay [1] (setting [7]) was 2640 nM; in assay [2] (setting [8]), 1660 nM; in assay [3] (setting [9]), 5900 nM.
In the case of `Cc1cc(NC2CCCCC2)nc(-n2nc(C)cc2C)n1` [CyPPA], the figures for the IC50 in assay [1] (setting [10]), in assay [2] (setting [11]) and in assay [3] (setting [12]) were 469 nM, 590 nM and 743 nM, respectively.
On to `c1ccc2c(c1)[I+]c1ccccc1-2` [Diphenyleneiodonium], for which the IC50 amounted to 132 nM in assay [1] (setting [7]), 209 nM in assay [2] (setting [8]) and 296 nM in assay [3] (setting [6]).
With `CCN(CC)C(=S)SSC(=S)N(CC)CC` [Disulfiram], the IC50 in assay [1] (setting [7]) was determined as 96 nM; in assay [2] (setting [5]), 96 nM; in assay [3] (setting [6]) it was 108 nM.
For `O=[N+]([O-])c1ccc(C=NNc2nc3ccccc3[nH]2)cc1` [MMV666607], in assay [1] (Malaria Box), the “Max Resp” value is -57%. Moreover, in assay [1] (setting [13]), the “Curve Class” value is listed as -2.2. Also, the IC50 in assay [1] (setting [14]) was determined as 29600 nM.
For the compound `COc1ccccc1C(=O)ON=C(N)Cc1cccc2ccccc12` [MMV666686], the “Max Resp” value in assay [1] (Malaria Box) was -50%. For the same compound, the “Curve Class” value in assay [1] (setting [13]) is -2.2. Besides, in assay [1] (setting [15]), the 50% inhibitory concentration (IC50) result is given as “Inactive”.
On to `COc1cc(C(=O)ON=C(N)Cc2cccc3ccccc23)cc(OC)c1OC` [MMV666687], for which, in assay [1] (Malaria Box), the “Max Resp” value is reported as -100%. In assay [1] (setting [13]), the “Curve Class” value is listed as -2.1. In addition, in assay [1] (setting [14]), the IC50 amounted to 14800 nM.
For the compound `Cc1cc(C=C2SC(=Nc3ccccc3)N(C3CCCC3)C2=O)c(C)n1-c1ccc(Cl)cc1` [MMV666688], the “Max Resp” value in assay [1] (Malaria Box) is reported as -20%. For the same compound, the “Curve Class” value in assay [1] (setting [13]) was found to be 4. The IC50 entry in assay [1] (setting [15]) was “Inactive”.
As for `COc1ccc(Nc2nc(N/N=C/c3ccc(O)cc3)nc(Nc3ccc([N+](=O)[O-])cc3)n2)cc1` [MMV666689], the “Max Resp” value in assay [1] (Malaria Box) was -64%. Besides, in assay [1] (setting [13]), the “Curve Class” value is recorded as -1.2. Moreover, the IC50 in assay [1] (setting [14]) was 6620 nM.
Consider `COc1ccc(C=C2SC(=N)N(c3ccccc3OC)C2=O)cc1` [MMV666691], for which the “Max Resp” value in assay [1] (Malaria Box) is listed as -7%. Besides, the “Curve Class” value in assay [1] (setting [13]) amounted to 4. Also, the IC50 result in assay [1] (setting [15]) is “Inactive”.
Regarding `CCCCCCc1cc2cc(-c3csc(C=Cc4ccccc4)n3)c(=O)oc2cc1O` [MMV666692], the “Max Resp” value in assay [1] (Malaria Box) is recorded as -54%. In addition, the “Curve Class” value in assay [1] (setting [13]) is on record as -2.2. Further, the IC50 in assay [1] (setting [14]) turned out to be 29600 nM.
Take `COc1cccc(C=Cc2nc(=O)c3ccccc3o2)c1OC` [MMV666693]: the “Max Resp” value in assay [1] (Malaria Box) was determined as 19%. In assay [1] (setting [13]), the “Curve Class” value worked out at 4. Moreover, in assay [1] (setting [15]), the IC50 result is reported as “Inactive”.
As to `CCOc1ccc(N2C(N)=NC(N)=NC2(C)C)cc1.Cl` [MMV667486], the “Max Resp” value in assay [1] (Malaria Box) is on record as -4%. In assay [1] (setting [13]), the “Curve Class” value is on record as 4. Besides, the concentration for half-maximal inhibition (IC50) entry in assay [1] (setting [15]) was “Inactive”.
For the compound `CN(C)c1ccc(N2C(N)=NC(N)=NC2(C)C)cc1` [MMV667487], in assay [1] (Malaria Box), the “Max Resp” value was -4%. Moreover, the “Curve Class” value in assay [1] (setting [13]) was determined as 4. The IC50 result in assay [1] (setting [15]) was “Inactive”.
For the compound `COc1ccc(CCn2c(=N)c(C(=O)NCc3cccnc3)cc3c(=O)n4cccc(C)c4nc32)cc1` [MMV667488], the “Max Resp” value in assay [1] (Malaria Box) is -32%. The “Curve Class” value in assay [1] (setting [13]) is recorded as -1.2. Further, the half-inhibitory concentration (IC50) in assay [1] (setting [14]) was determined as 2640 nM.
With `COC(=O)c1ccc(Cl)c2c1C1C=CCC1C(c1cccc3ccccc13)N2` (stereo not shown) [MMV667489], the “Max Resp” value in assay [1] (Malaria Box) stood at 1%. For the same compound, in assay [1] (setting [13]), the “Curve Class” value worked out at 4. For the same compound, the IC50 entry in assay [1] (setting [15]) is reported as “Inactive”.
In the case of `COc1ccc(C2c3ccc4ccccc4c3Oc3ncn(CCCn4ccnc4)c(=N)c32)cc1OC` (stereo not shown) [MMV667490], the “Max Resp” value in assay [1] (Malaria Box) was -79%. The “Curve Class” value in assay [1] (setting [13]) is given as -1.1. The IC50 in assay [1] (setting [14]) turned out to be 4180 nM.
Regarding `COc1ccc(C2c3ccc4ccccc4c3Oc3ncn(CCCN(C)C)c(=N)c32)cc1` (stereo not shown) [MMV667491], the “Max Resp” value in assay [1] (Malaria Box) is -95%. Also, the “Curve Class” value in assay [1] (setting [13]) is reported as -1.1. Also, the IC50 in assay [1] (setting [14]) stood at 2640 nM.
Take `CN(N=O)C1=C(NC2CCCCC2)C(=O)c2ccccc2C1=O` [MMV667492]: the “Max Resp” value in assay [1] (Malaria Box) is listed as -59%. The “Curve Class” value in assay [1] (setting [13]) is on record as -1.2. In addition, in assay [1] (setting [14]), the half-maximal inhibitory concentration (IC50) was determined as 2350 nM.
Turning to `CO[C@@H]1[C@@H](OC)[C@H](C)[C@@](O)(CC(=O)O)O[C@H]1[C@H](C)[C@H]1O[C@@]2(CC[C@@](C)([C@H]3CC[C@@](C)([C@@H]4O[C@@H]([C@H]5O[C@](C)(O)[C@H](C)C[C@@H]5C)C[C@@H]4O[C@@H]4C[C@H](OC)[C@@H](OC)[C@H](C)O4)O3)O2)C[C@H](O)[C@H]1C` [Maduramicin ammonium], the values for the IC50 in assay [1] (setting [7]), in assay [2] (setting [5]) and in assay [3] (setting [6]) were 24 nM, 37 nM and 12 nM, respectively.
`CO[C@@H]1[C@@H](OC)[C@H](C)[C@@](O)(CC(=O)O)O[C@H]1[C@H](C)[C@H]1O[C@@]2(CC[C@@](C)([C@H]3CC[C@@](C)([C@@H]4O[C@@H]([C@H]5O[C@](C)(O)[C@H](C)C[C@@H]5C)C[C@@H]4O[C@@H]4C[C@H](OC)[C@@H](OC)[C@H](C)O4)O3)O2)C[C@H](O)[C@H]1C` [Maduramicin]: the IC50 in assay [1] (setting [16]) is 47 nM. Moreover, in assay [4], the Emax is -42% and the half-maximal inhibitory concentration (IC50) was 37.2 µM.
With `OC(c1cc(C(F)(F)F)nc2c(C(F)(F)F)cccc12)C1CCCCN1` (stereo not shown) [Mefloquine hydrochloride], the IC50 in assay [1] (setting [7]) was found to be 74 nM; in assay [2] (setting [5]), 53 nM; in assay [3] (setting [6]), 59 nM.
Take `OC(c1cc(C(F)(F)F)nc2c(C(F)(F)F)cccc12)C1CCCCN1` (stereo not shown) [Mefloquine]: the IC50 in assay [1] (setting [16]) came to 833 nM. Also, in assay [4], the Emax was -97% and the IC50 worked out at 29.6 µM.
Turning to `CCN(CC)Cc1nccn1-c1ccc([N+](=O)[O-])cc1C(=O)c1ccccc1Cl` [Nizofenone], the values for the concentration for half-maximal inhibition (IC50) in assay [1] (setting [7]), in assay [2] (setting [8]) and in assay [3] (setting [9]) were 23500 nM, 16600 nM and 14800 nM, respectively.
Consider `COC(=O)C[C@](O)(CCCC(C)(C)O)C(=O)O[C@@H]1C(OC)=C[C@]23CCCN2CCc2cc4c(cc2[C@H]13)OCO4` [Omacetaxine mepesuccinate], for which the IC50 in assay [1] (setting [7]) was 59 nM; in assay [2] (setting [5]), 37 nM; in assay [3] (setting [6]) it was 17 nM.
For `COc1ccc2nc3cc(Cl)ccc3c(Nc3cc(CN4CCCC4)c(O)c(CN4CCCC4)c3)c2n1` [Pyronaridine] the same measures were 1870 nM, 6620 nM and 2640 nM.
Take `Cl.Cl.Cl.Cl.Cl.Cl.N.N.N.N.N.N.N.N.N.N.N.N.N.N.[O-2].[O-2].[Ru+3].[Ru+3].[Ru+4]` [Ruthenium red]: the IC50 in assay [1] (setting [10]) came out at 935 nM; in assay [2] (setting [11]), 526 nM; in assay [3] (setting [12]), 264 nM.
The matching figures for `CCN(CC)C(=S)SSC(=S)N(CC)CC` [Tetraethylthiuram disulfide]: 96 nM, 296 nM and 148 nM.
Consider `CCC(=O)N1CCN(c2ccc(-n3c(=O)ccc4cnc5ccc(-c6ccc(N)nc6)cc5c43)cc2C(F)(F)F)CC1` [WWH030], for which the 50% inhibitory concentration (IC50) in assay [1] (Plasmodium falciparum, 3D7, 3D7 gametocytes, stages III-V, high throughput viability assay, read-out: IC50 against gametocytes) was 9 nM.
For the compound Salinomycin monosodium, the IC50 turned out to be 194 nM in assay [1] (setting [10]), 296 nM in assay [2] (setting [11]) and 469 nM in assay [3] (setting [12]).

The term IC50 denotes the concentration that inhibits the measured activity by half.
